pIC50: −log10 of the molar value.

The assay relates to Aliivibrio fischeri. The assay can be described thus: Tested for the ability to interfere with the induction of luminescence by N-3-oxohexanoyl-L-homoserine lactone in the Vibrio fischeri QS system. In kind it is functional, organism-based.
With `O=C(CC(=O)NC1CCOC1=O)Cc1ccccc1` (centres undefined), the pIC50 (usually −log10 of the IC50, conventionally taken in molar units) is 5.70.

Molecule `O=C(CCCc1ccccc1)NC1CCOC1=O` (centres undefined) showed a pIC50 of 5.70.

For `CCCCCS(=O)(=O)NC1CCOC1=O` (centres undefined), the pIC50 was 5.70.

`CCCCCCCS(=O)(=O)NC1CCOC1=O` (centres undefined): the pIC50 is 5.05. This pIC50 lies 0.65 log units lower than the previous one.

In turn, `O=C1OCCC1NS(=O)(=O)CCCc1ccccc1` (centres undefined) showed a pIC50 of 4.70.

`O=C1OCCC1NS(=O)(=O)CCc1ccccc1` (centres undefined): the pIC50 was 5.52. Against the preceding molecule, the pIC50 is 0.82 log units higher.

For the molecule `CCCCCCCCS(=O)(=O)NC1CCOC1=O` (centres undefined), the pIC50 is 5.00.

Molecule `CCCCS(=O)(=O)NC1CCOC1=O` (centres undefined) gave a pIC50 of 4.92.

In turn, `CCCCCCS(=O)(=O)NC1CCOC1=O` (centres undefined) showed a pIC50 of 5.19.
